# Test system: HCV genotype 1a replicon cell line
# Experiment: HCV Genotype 1a Replicon Assay
# Assay type: cell-based, hepatitis C virus
# Details: Hepatitis C virus, Huh7.5 cell background, NS3-specific protease activity in lysates, 48 or 72 hours, read-out: Genotype 1a (pEC50 class) (converted)
# Description: Assay 2: HCV Genotype 1a Replicon Assay
# The HCV genotype 1a replicon cell line was obtained from Apath LLC (APC89; Huh7.5 cell background). This subgenomic replicon contains the N-terminus of the HCV core protein fused to the neomycin-resistance selectable marker. The EMCV IRES lies downstream and drives expression of the non-structural proteins NS3-NS5B. Compound potencies were determined using the NS3-specific protease activity in lysates as a measurement of compound inhibition of replicon levels.
# Cells were grown at 37° C. in a 5% CO2 humidified incubator in DMEM (Invitrogen) with 10% FBS (HyClone), 1×NEAA (Invitrogen), 1× Pen-Strep (Invitrogen), and 850 μg/mL G418 (Invitrogen). On day 1 of the assay, cells were plated at 15,000 cells/well in black 96-well tissue culture plates (Costar) in 200 μL media lacking G418. Four hours later, once the cells had adhered, the media was removed and replaced with media (no G418) containing dose-responses of test compounds. Compounds were initially diluted in DMSO and then diluted another 200× in media to bring the final DMSO concentration down to 0.5%. The cells were incubated with test compounds for 48 or 72 hours. At the end of the incubation period, media and compound were removed from the plates.
# To determine the NS3-specific protease activity in lysates, the cells were lysed at room temperature in 50 μL/well of 50 mM Hepes pH 7.5, 150 mM NaCl, 15% Glycerol, 0.15% Triton X-100, 10 mM DTT for 20 minutes with shaking. 50 μL of an NS3/4a protease-specific FRET substrate (Anaspec RET SI Cat#22991) was then added to the wells at a final concentration of 15 μM. The plates were incubated at 37° C. for 20 minutes, which corresponds to a timepoint at which the protease activity is still in the linear phase. Protease activity was determined by measuring fluorescence (Excitation: 340 nm; Emission: 509 nm).
# To analyze the data, the fluorescence was plotted vs. the compound concentration, and EC50 values were determined from a 4-parameter robust fit model using GraphPad Prism software.
row,SMILES,EC50
1,"COC(=O)N[C@H](C(=O)N1CCC[C@H]1c1nc(-c2ccc(-c3ccc(NC(=O)N4CCN(C5CCN(C(=O)C6CC6)CC5)[C@@H](C)C4)cc3OC(F)(F)F)cc2)c[nH]1)C(C)C [Example 1, ((S)-1-{(S)-2-[4-(4′-{[(S)-4-(1-Cyclopropanecarbonyl-piperidin-4-yl)-3-methyl-piperazine-1-carbonyl]-amino}-2′-trifluoromethoxy-biphenyl-4-yl)-1H-imidazol-2-yl]-pyrrolidine-1-carbonyl}-2-methyl-propyl)-carbamic acid methyl ester]",0.1 to 1 nM

# Same assay, conditions: Huh7.5 cell background, NS3-specific protease activity in lysates, 48 or 72 hours
row,SMILES,Genotype 1a (pEC50 class)
1,COC(=O)N[C@H](C(=O)N1CCC[C@H]1c1nc(-c2ccc(-c3ccc(NC(=O)N4CCN(C5CCN(C(=O)OCc6ccccc6)CC5)CC4)cc3)cc2)c[nH]1)C(C)C [Example 1-2],B (B represents pEC50 between 8 and 9 (EC50 between 1 and 10 nM))
2,COC(=O)N[C@H](C(=O)N1CCC[C@H]1c1nc(-c2ccc(-c3ccc(NC(=O)N4CCN(C5CCN(C(=O)[C@H]6CC6(C)C)CC5)CC4)cc3)cc2)c[nH]1)C(C)C [Example 1-3],"C (C represents pEC50 between and 9 and about 10, (EC50 between 1 nM and 0.1 nM))"
3,COC(=O)N[C@H](C(=O)N1CCC[C@H]1c1nc(-c2ccc(-c3ccc(NC(=O)N4CCN(C5CCN(C(=O)c6c[nH]cn6)CC5)CC4)cc3)cc2)c[nH]1)C(C)C [Example 1-5],B (B represents pEC50 between 8 and 9 (EC50 between 1 and 10 nM))
4,COC(=O)N[C@H](C(=O)N1CCC(N2CCN(C(=O)Nc3ccc(-c4ccc(-c5c[nH]c([C@@H]6CCCN6C(=O)[C@@H](NC(=O)OC)C(C)C)n5)cc4)cc3)CC2)CC1)C(C)C [Example 1-6],A (A represents a pEC50 value between 6 and 8 (EC50 between 1 μM and 10 nM))
5,CNC(=O)N1CCC(N2CCN(C(=O)Nc3ccc(-c4ccc(-c5c[nH]c([C@@H]6CCCN6C(=O)[C@@H](NC(=O)OC)C(C)C)n5)cc4)cc3)CC2)CC1 [Example 1-7],B (B represents pEC50 between 8 and 9 (EC50 between 1 and 10 nM))
6,COC(=O)N[C@H](C(=O)N1CCC[C@H]1c1nc(-c2ccc(-c3ccc(NC(=O)N4CCN(C5CCN(C(=O)OC)CC5)CC4)cc3)cc2)c[nH]1)C(C)C [Example 1-9],B (B represents pEC50 between 8 and 9 (EC50 between 1 and 10 nM))
7,COC(=O)N[C@H](C(=O)N1CCC[C@H]1c1nc(-c2ccc(-c3ccc(NC(=O)N4CCN(C5CCN(C(=O)C67CC8CC(CC(O)(C8)C6)C7)CC5)CC4)cc3OC(F)(F)F)cc2)c[nH]1)C(C)C [Example 1-10],B (B represents pEC50 between 8 and 9 (EC50 between 1 and 10 nM))
8,COC(=O)N[C@H](C(=O)N1CCC[C@H]1c1nc(-c2ccc(-c3ccc(NC(=O)N4CCN(C5CCN(C(=O)C6CC7CCC6C7)CC5)CC4)cc3OC(F)(F)F)cc2)c[nH]1)C(C)C (stereo partly shown) [Example 1-11],"C (C represents pEC50 between and 9 and about 10, (EC50 between 1 nM and 0.1 nM))"
9,COC(=O)N[C@H](C(=O)N1CCC[C@H]1c1nc(-c2ccc(-c3ccc(NC(=O)N4CCN(C5CCN(C(=O)C(C)NC(N)=O)CC5)CC4)cc3OC(F)(F)F)cc2)c[nH]1)C(C)C (stereo partly shown) [Example 1-15],B (B represents pEC50 between 8 and 9 (EC50 between 1 and 10 nM))
10,COC(=O)N[C@H](C(=O)N1CCC[C@H]1c1nc(-c2ccc(-c3ccc(NC(=O)N4CCN(C5CCN(C(=O)C6CC6)CC5)C[C@H]4C)cc3OC(F)(F)F)cc2)c[nH]1)C(C)C [Example 1-18],"C (C represents pEC50 between and 9 and about 10, (EC50 between 1 nM and 0.1 nM))"
11,COC(=O)N[C@H](C(=O)N1CCC[C@H]1c1nc(-c2ccc(-c3ccc(NC(=O)N4CCN(C5CCN(C(=O)OC(C)(C)C)CC5)C[C@H]4C)cc3OC(F)(F)F)cc2)c[nH]1)C(C)C [Example 1-19],"C (C represents pEC50 between and 9 and about 10, (EC50 between 1 nM and 0.1 nM))"
12,COC(=O)N[C@H](C(=O)N1CCC[C@H]1c1nc(-c2ccc(-c3ccc(NC(=O)N4CCN(C5CCN(C(=O)c6ncccn6)CC5)CC4)cc3OC(F)(F)F)cc2)c[nH]1)C(C)C [Example 1-21],B (B represents pEC50 between 8 and 9 (EC50 between 1 and 10 nM))
13,COC(=O)N[C@H](C(=O)N1CCC[C@H]1c1nc(-c2ccc(-c3ccc(NC(=O)N4CCN(C5CCN(C(=O)c6c[nH]cn6)CC5)CC4)cc3OC(F)(F)F)cc2)c[nH]1)C(C)C [Example 1-23],"C (C represents pEC50 between and 9 and about 10, (EC50 between 1 nM and 0.1 nM))"
14,CNC(=O)N1CCC(N2CCN(C(=O)Nc3ccc(-c4ccc(-c5c[nH]c([C@@H]6CCCN6C(=O)[C@@H](NC(=O)OC)C(C)C)n5)cc4)c(OC(F)(F)F)c3)CC2)CC1 [Example 1-24],"C (C represents pEC50 between and 9 and about 10, (EC50 between 1 nM and 0.1 nM))"
15,COC(=O)N[C@H](C(=O)N1CCC[C@H]1c1nc(-c2ccc(-c3cc(F)c(NC(=O)N4CCN(C5CCN(C(=O)[C@H]6CC6(C)C)CC5)CC4)cc3OC(F)(F)F)cc2)c[nH]1)C(C)C [Example 1-26],"C (C represents pEC50 between and 9 and about 10, (EC50 between 1 nM and 0.1 nM))"
16,COC(=O)N[C@H](C(=O)N1CCC[C@H]1c1nc(-c2ccc(-c3cc(F)c(NC(=O)N4CCN(C5CCN(C(=O)C6CC6)CC5)CC4)cc3OC(F)(F)F)cc2)c[nH]1)C(C)C [Example 1-28],"C (C represents pEC50 between and 9 and about 10, (EC50 between 1 nM and 0.1 nM))"
17,COC(=O)N[C@H](C(=O)N1CCC(N2CCN(C(=O)Nc3ccc(-c4ccc(-c5c[nH]c([C@@H]6CCCN6C(=O)[C@@H](NC(=O)OC)C(C)C)n5)cc4)c(OC(F)(F)F)c3)CC2)CC1)C(C)C [Example 1-29],A (A represents a pEC50 value between 6 and 8 (EC50 between 1 μM and 10 nM))
18,CCN(CC)[C@@H](C(=O)N1CCC(N2CCN(C(=O)Nc3ccc(-c4ccc(-c5c[nH]c([C@@H]6CCCN6C(=O)[C@@H](NC(=O)OC)C(C)C)n5)cc4)c(OC(F)(F)F)c3)CC2)CC1)C(C)C [Example 1-30],A (A represents a pEC50 value between 6 and 8 (EC50 between 1 μM and 10 nM))
19,CCN(CC)[C@@H](C(=O)N1CCC(N2CCN(C(=O)Nc3ccc(-c4ccc(-c5c[nH]c([C@@H]6CCCN6C(=O)[C@@H](NC(=O)OC)C(C)C)n5)cc4)c(OC(F)(F)F)c3)CC2)CC1)c1ccccc1 [Example 1-32],A (A represents a pEC50 value between 6 and 8 (EC50 between 1 μM and 10 nM))
20,COC(=O)N[C@H](C(=O)N1CCC[C@H]1c1nc(-c2ccc(-c3cc(Cl)c(NC(=O)N4CCN(C5CCN(C(=O)C6CC6)CC5)CC4)cc3OC(F)(F)F)cc2)c[nH]1)C(C)C [Example 1-33],"C (C represents pEC50 between and 9 and about 10, (EC50 between 1 nM and 0.1 nM))"
21,COC(=O)N[C@H](C(=O)N1CCC[C@H]1c1nc(-c2ccc(-c3cc(Cl)c(NC(=O)N4CCN(C5CCN(C(=O)[C@H]6CC6(C)C)CC5)CC4)cc3OC(F)(F)F)cc2)c[nH]1)C(C)C [Example 1-34],"C (C represents pEC50 between and 9 and about 10, (EC50 between 1 nM and 0.1 nM))"
22,COC(=O)N[C@H](C(=O)N1CCC[C@H]1c1nc(-c2ccc(-c3cc(Cl)c(NC(=O)N4CCN(C5CCN(C(=O)OC(C)(C)C)CC5)CC4)cc3OC(F)(F)F)cc2)c[nH]1)C(C)C [Example 1-36],"C (C represents pEC50 between and 9 and about 10, (EC50 between 1 nM and 0.1 nM))"
23,COC(=O)NC(C(=O)N1CCCC1c1nc(-c2ccc(-c3ccc(NC(=O)N4CCN(C5CCN(C(=O)C6CC6(C)C)CC5)C(C)C4)cc3OC(F)(F)F)cc2)c[nH]1)C(C)C (stereo not shown) [Example 1-37],B (B represents pEC50 between 8 and 9 (EC50 between 1 and 10 nM))
24,COC(=O)NC(C(=O)N1CCCC1c1nc(-c2ccc(-c3ccc(NC(=O)N4CCN(C5CCN(C(=O)OC(C)(C)C)CC5)C(C)C4)cc3OC(F)(F)F)cc2)c[nH]1)C(C)C (stereo not shown) [Example 1-38],B (B represents pEC50 between 8 and 9 (EC50 between 1 and 10 nM))
25,CNC(=O)N1CCC(N2CCN(C(=O)Nc3ccc(-c4ccc(-c5c[nH]c(C6CCCN6C(=O)C(NC(=O)OC)C(C)C)n5)cc4)c(OC(F)(F)F)c3)CC2C)CC1 (stereo not shown) [Example 1-39],B (B represents pEC50 between 8 and 9 (EC50 between 1 and 10 nM))
26,COC(=O)NC(C(=O)N1CCCC1c1nc(-c2ccc(-c3ccc(NC(=O)N4CCN(C5CCN(C(=O)C6CC6)CC5)C(C)C4)cc3OC(F)(F)F)cc2)c[nH]1)C(C)C (stereo not shown) [Example 1-40],B (B represents pEC50 between 8 and 9 (EC50 between 1 and 10 nM))
27,COC(=O)N[C@H](C(=O)N1CCC[C@H]1c1nc(-c2ccc(-c3ccc(NC(=O)N4CCN(C5CCN(C(=O)C6CC6)CC5)C[C@@H]4C)cc3OC(F)(F)F)cc2)c[nH]1)C(C)C [Example 1-41],B (B represents pEC50 between 8 and 9 (EC50 between 1 and 10 nM))
